# Laboratory results as given in patent US20220326229A1, “ASSAY FOR REAL-TIME SIMULTANEOUS RECRUITMENT OF ARRESTIN ISOFORMS TO G PROTEIN-COUPLED RECEPTORS” (Purdue Research Foundation, priority 2021, published 2022).
# T1: 3xHA-AGTR1(2-360)-GSSGGGGSGGGGSGGGGSGGGG-CBGct(395-542) (human)
# T1 construct: also called AGTR1-CBGct; angiotensin type 1 receptor
# T1 chain: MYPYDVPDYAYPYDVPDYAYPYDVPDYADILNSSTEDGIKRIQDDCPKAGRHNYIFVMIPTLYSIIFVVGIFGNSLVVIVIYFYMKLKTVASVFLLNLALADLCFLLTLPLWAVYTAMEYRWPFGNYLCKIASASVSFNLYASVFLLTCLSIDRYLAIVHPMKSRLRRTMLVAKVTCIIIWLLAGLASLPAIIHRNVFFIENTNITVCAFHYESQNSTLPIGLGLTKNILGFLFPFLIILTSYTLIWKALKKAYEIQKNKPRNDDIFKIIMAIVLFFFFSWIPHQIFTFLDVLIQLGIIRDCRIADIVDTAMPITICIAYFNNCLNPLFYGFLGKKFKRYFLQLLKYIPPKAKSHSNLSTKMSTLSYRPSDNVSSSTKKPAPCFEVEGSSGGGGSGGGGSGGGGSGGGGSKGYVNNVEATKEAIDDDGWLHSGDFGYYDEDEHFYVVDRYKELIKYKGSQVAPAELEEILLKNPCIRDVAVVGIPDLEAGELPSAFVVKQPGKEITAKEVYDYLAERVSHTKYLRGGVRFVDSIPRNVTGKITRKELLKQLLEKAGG
# T2: Signal peptide + FLAG tag-KOR-GSSGGGGSGGGGSGGGGSGGGG-CBGct(395-542) (mouse)
# T2 construct: also called kappa opioid receptor-CBGct; kappa opioid receptor
# T2 chain: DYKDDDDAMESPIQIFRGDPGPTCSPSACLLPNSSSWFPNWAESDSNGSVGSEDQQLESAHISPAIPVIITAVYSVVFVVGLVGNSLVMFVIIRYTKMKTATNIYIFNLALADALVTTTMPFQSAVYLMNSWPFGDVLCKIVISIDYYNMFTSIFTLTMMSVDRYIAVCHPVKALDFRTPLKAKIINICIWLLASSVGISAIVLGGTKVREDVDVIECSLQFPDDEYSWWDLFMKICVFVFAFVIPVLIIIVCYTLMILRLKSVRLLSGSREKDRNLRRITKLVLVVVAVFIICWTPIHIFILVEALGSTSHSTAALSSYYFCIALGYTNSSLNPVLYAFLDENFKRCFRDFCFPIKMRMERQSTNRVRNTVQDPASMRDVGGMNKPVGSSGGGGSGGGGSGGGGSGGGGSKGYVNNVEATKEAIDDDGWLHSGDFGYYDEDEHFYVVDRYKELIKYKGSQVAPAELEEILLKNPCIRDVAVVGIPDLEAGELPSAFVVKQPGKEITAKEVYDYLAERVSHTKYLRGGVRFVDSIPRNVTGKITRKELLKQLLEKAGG
# T3: Signal peptide + FLAG tag-DOR-GSSGGGGSGGGGSGGGGSGGGG-CBGct(395-542) (mouse (Mus musculus))
# T3 construct: also called optimized DOR construct; DOR-CBGct
# T3 chain: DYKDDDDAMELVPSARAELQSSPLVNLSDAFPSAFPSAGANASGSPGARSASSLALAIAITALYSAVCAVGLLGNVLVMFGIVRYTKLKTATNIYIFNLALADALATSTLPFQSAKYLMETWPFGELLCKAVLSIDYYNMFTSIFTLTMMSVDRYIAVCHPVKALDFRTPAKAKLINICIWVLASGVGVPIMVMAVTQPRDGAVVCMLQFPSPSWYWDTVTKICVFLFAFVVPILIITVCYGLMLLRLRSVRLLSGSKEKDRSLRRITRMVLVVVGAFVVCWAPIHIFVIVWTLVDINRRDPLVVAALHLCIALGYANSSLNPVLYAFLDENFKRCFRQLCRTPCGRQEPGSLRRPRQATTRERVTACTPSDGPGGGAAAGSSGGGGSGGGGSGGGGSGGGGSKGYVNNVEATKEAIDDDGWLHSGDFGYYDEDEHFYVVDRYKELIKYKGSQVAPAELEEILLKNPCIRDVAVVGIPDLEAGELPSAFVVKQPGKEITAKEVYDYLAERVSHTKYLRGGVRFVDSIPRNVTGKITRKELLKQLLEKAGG
# T4: D2R-GSSGGGGSGGGGSGGGGSGGGG-CBGct(395-542) (human)
# T4 construct: also called D2R-CBGct; dopamine D2 receptor
# T4 chain: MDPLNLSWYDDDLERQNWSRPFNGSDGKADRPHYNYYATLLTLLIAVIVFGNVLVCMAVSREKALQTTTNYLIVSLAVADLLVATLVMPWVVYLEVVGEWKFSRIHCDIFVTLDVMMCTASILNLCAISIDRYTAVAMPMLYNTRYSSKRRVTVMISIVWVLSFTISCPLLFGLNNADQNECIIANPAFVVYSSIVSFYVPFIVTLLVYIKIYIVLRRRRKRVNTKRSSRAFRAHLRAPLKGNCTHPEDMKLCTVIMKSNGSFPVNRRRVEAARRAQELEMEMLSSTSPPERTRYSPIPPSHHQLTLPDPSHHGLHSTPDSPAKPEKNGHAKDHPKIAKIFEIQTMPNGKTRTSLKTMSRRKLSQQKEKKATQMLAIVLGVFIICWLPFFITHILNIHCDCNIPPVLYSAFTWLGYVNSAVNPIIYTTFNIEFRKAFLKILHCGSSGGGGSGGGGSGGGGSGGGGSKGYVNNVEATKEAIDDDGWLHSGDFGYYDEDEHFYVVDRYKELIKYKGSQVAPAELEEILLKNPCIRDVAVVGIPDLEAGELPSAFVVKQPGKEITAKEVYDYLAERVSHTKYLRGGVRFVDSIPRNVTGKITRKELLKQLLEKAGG
# What was measured:
# [1] = target: T5, δ opioid receptor (DOR) (Mus musculus, UniProt P32300); experiment: ClickArr assay: simultaneous recruitment of Barr1 (508 nm) and Barr2 (620 nm) to DOR in triply transfected HEK293 cells; type: cell-based
# T5 construct: influenza signal peptide (N); linker […]; expressed in transfected cells; host or cells: HEK293
# T5 sequence (P32300 with tags, fused parts or gaps): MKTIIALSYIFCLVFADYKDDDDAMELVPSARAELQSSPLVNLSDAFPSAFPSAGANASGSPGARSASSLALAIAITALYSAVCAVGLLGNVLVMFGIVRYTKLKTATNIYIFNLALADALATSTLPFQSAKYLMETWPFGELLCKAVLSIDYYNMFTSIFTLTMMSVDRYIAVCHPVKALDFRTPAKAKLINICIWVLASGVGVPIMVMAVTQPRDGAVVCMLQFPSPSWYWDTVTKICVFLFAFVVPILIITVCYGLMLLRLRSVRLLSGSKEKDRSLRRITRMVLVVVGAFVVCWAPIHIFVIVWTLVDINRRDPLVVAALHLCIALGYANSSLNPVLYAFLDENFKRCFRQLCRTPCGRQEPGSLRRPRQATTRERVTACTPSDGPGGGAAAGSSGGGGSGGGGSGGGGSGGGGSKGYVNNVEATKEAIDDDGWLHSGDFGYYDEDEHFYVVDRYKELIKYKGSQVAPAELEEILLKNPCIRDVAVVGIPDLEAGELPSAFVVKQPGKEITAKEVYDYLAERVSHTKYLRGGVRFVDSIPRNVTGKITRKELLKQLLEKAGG
# [2] = target: T6, dopamine D2 receptor (D2R) (Homo sapiens, UniProt P14416); type: cell-based; settings: FIG. 7B; single replicate, pilot experiment
# T6 construct: linker […]; expressed in transfected cells; host or cells: HEK293
# [3] = target: D2R (Homo sapiens, UniProt P14416); settings: cited from earlier work
# [4] = target: T1, 3xHA-AGTR1(2-360)-GSSGGGGSGGGGSGGGGSGGGG …; experiment: split click beetle luciferase complementation (ClickArr), triply transfected cells, angiotensin II dose-response, single replicate
# [5] = target: T2, Signal peptide + FLAG …; experiment: split click beetle luciferase complementation (ClickArr), triply transfected cells, dynorphin17 dose-response, single replicate
# [6] = target: T3, Signal peptide + FLAG …; experiment: split click beetle luciferase complementation (ClickArr), kinetic read at 508 nm, triply transfected HEK293 cells, 32 µM leu-enkephalin or TAN67
# [7] = target: T4, D2R-GSSGGGGSGGGGSGGGGSGGGG-CBGct(395-542 …); experiment: split click beetle luciferase complementation (ClickArr), triply transfected cells, UNC9994 dose-response, single replicate
molecule,measurement,setting,value
"Br.Br.CN1CC[C@@]2(c3cccc(O)c3)Cc3nc4ccccc4cc3C[C@@H]2C1 (racemic) [TAN67, (R*,S*)-(±)-2-Methyl-4aa-(3-hydroxyphenyl)-1,2,3,4,4a,5,12,12aa-octahydroquinolino[2,3,3-g]isoquinoline dihydrobromide]",Δ% efficacy Barr1-Barr2 compared to Leu-Enk,"[1]; difference in maximum change in signal between arrestin isoforms, as a percentage of Leu-Enk, n=5-6 biological replicates, FIG. 5C",significant difference in efficacy
same,Kinetics of Barr1 vs Barr2 recruitment (normalized β-arrestin signal over time),"[1]; saturating concentration (32 μM), n=6 replicates, FIGS. 6A, 6B",Recruitment of Barr1 is much slower than Barr2
"Cl.Clc1cccc(C2CCN(CCCOc3ccc4scnc4c3)CC2)c1Cl [UNC9994, 5-(3-(4-(2,3-dichlorophenyl)piperidin-1-yl)propoxy)benzo[d]thiazole hydrochloride]",Potency of β-arrestin curves relative to published value,[2],as potent or more potent than published values
same,Response: fold change in dopamine receptor:β-arrestin signal,[2],showed a response
same,EC50,"[3]; Allen et al., PNAS 108(45): 18488-18493 (2011), read-out: Published potency value",448 nM
same,log10 of published potency value,"[3]; log10 (M) of 448 nM, Allen et al. 2011",~−6.3
"CBGnt(1-415)-SGGGGSGGGGSGGGGSGGGGS-Barr1 (other, also called optimized Barr1 construct; CBGnt-Barr1) MVKREKNVIYGPEPLHPLEDLTAGEMLFRALRKHSHLPQALVDVVGDESLSYKEFFEATVLLAQSLHNCGYKMNDVVSICAENNTRFFIPVIAAWYIGMIVAPVNESYIPDELCKVMGISKPQIVFTTKNILNKVLEVQSRTNFIKRIIILDTVENIHGCESLPNFISRYSDGNIANFKPLHFDPVEQVAAILCSSGTTGLPKGVMQTHQNICVRLIHALDPRVGTQLIPGVTVLVYLPFFHAFGFSITLGYFMVGLRVIMFRRFDQEAFLKAIQDYEVRSVINVPSVILFLSKSPLVDKYDLSSLRELCCGAAPLAKEVAEVAAKRLNLPGIRCGFGLTESTSANIHSLGDEFKSGSLGRVTPLMAAKIADRETGKALGPNQVGELCIKGPMVSKGYVNNVEATKEAIDDDGWLSGGGGSGGGGSGGGGSGGGGSGDKGTRVFKKASPNGKLTVYLGKRDFVDHIDLVDPVDGVVLVDPEYLKERRVYVTLTCAFRYGREDLDVLGLTFRKDLFVANVQSFPPAPEDKKPLTRLQERLIKKLGEHAYPFTFEIPPNLPCSVTLQPGPEDTGKACGVDYEVKAFCAENLEEKIHKRNSVRLVIRKVQYAPERPGPQPTAETTRQFLMSDKPLHLEASLDKEIYYHGEPISVNVHVTNNTNKTVKKIKISVRQYADICLFNTAQYKCPVAMEEADDTVAPSSTFCKVYTLTPFLANNREKRGLALDGKLKHEDTNLASSTLLREGANREILGIIVSYKVKVKLVVSRGGDVAVELPFTLMHPKPKEEPPHREVPENETPVDTNLIELDTNDDDIVFEDFARQRLKGMKDDKEEEEDGTGSPQLNNR",binding result,[4],binds
same,binding result,[5],binds
same,binding result,[6],binds
same,binding result,[7],binds
